Laboratory results published in US20260223897A1, “SIAMENOSIDE I SWEETENED BEVERAGES WITH MOGROSIDE BLENDS” (The Coca-Cola Company, priority 2023, published 2026).

assay: Taste of blends with siamenoside I, findings summarised in the description; settings: blended with siamenoside I in certain ratios

Compound	taste attributes when blended with siamenoside I vs siamenoside I only sweetened beverages
C[C@H](CC[C@@H](O[C@@H]1O[C@H](CO[C@@H]2O[C@H](CO)[C@@H](O)[C@H](O)[C@H]2O)[C@@H](O)[C@H](O)[C@H]1O[C@@H]1O[C@H](CO)[C@@H](O)[C@H](O)[C@H]1O)C(C)(C)O)[C@H]1CC[C@@]2(C)C3CC=C4[C@@H](CC[C@H](O[C@@H]5O[C@H](CO)[C@@H](O[C@@H]6O[C@H](CO)[C@@H](O)[C@H](O)[C@H]6O)[C@H](O)[C@H]5O)C4(C)C)[C@]3(C)C(=O)C[C@]12C (stereo partly drawn) [11-Oxoisomogroside V, 11- Oxoisomogroside V]	less objectionable taste attributes
C[C@H](CC[C@@H](O[C@@H]1O[C@H](CO[C@@H]2O[C@H](CO)[C@@H](O)[C@H](O)[C@H]2O)[C@@H](O)[C@H](O)[C@H]1O)C(C)(C)O)[C@H]1CC[C@@]2(C)C3CC=C4[C@@H](CC[C@H](O[C@@H]5O[C@H](CO)[C@@H](O)[C@H](O)[C@H]5O)C4(C)C)[C@]3(C)C(=O)C[C@]12C (stereo partly drawn) [11-Oxomogroside III]	less objectionable taste attributes
C[C@H](CC[C@@H](O[C@@H]1O[C@H](CO)[C@@H](O)[C@H](O)[C@H]1O)C(C)(C)O)[C@H]1CC[C@@]2(C)C3CC=C4[C@@H](CC[C@H](O[C@@H]5O[C@H](CO)[C@@H](O)[C@H](O)[C@H]5O)C4(C)C)[C@]3(C)[C@H](O)C[C@]12C (stereo partly drawn) [Mogroside IIE]	less objectionable taste attributes
C[C@H](CC[C@@H](O[C@@H]1O[C@H](CO[C@@H]2O[C@H](CO)[C@@H](O)[C@H](O)[C@H]2O)[C@@H](O)[C@H](O)[C@H]1O)C(C)(C)O)[C@H]1CC[C@@]2(C)C3CC=C4[C@@H](CC[C@H](O[C@@H]5O[C@H](CO)[C@@H](O)[C@H](O)[C@H]5O)C4(C)C)[C@]3(C)[C@H](O)C[C@]12C (stereo partly drawn) [Mogroside III]	less objectionable taste attributes
C[C@H](CC[C@@H](O[C@@H]1O[C@H](CO[C@@H]2O[C@H](CO)[C@@H](O)[C@H](O)[C@H]2O)[C@@H](O)[C@H](O)[C@H]1O[C@@H]1O[C@H](CO)[C@@H](O)[C@H](O)[C@H]1O)C(C)(C)O)[C@H]1CC[C@@]2(C)C3CC=C4[C@@H](CC[C@H](O[C@@H]5O[C@H](CO[C@@H]6O[C@H](CO)[C@@H](O)[C@H](O)[C@H]6O)[C@@H](O)[C@H](O)[C@H]5O)C4(C)C)[C@]3(C)[C@H](O)C[C@]12C (stereo partly drawn) [11-Oxomogroside V]	less objectionable taste attributes
C[C@H](CC[C@@H](O[C@@H]1O[C@H](CO[C@@H]2O[C@H](CO)[C@@H](O)[C@H](O)[C@H]2O)[C@@H](O)[C@H](O)[C@H]1O[C@@H]1O[C@H](CO)[C@@H](O)[C@H](O)[C@H]1O)C(C)(C)O)[C@H]1CC[C@@]2(C)C3CC=C4[C@@H](CC[C@H](O[C@@H]5O[C@H](CO)[C@@H](O[C@@H]6O[C@H](CO)[C@@H](O)[C@H](O)[C@H]6O)[C@H](O)[C@H]5O)C4(C)C)[C@]3(C)[C@H](O)C[C@]12C (stereo partly drawn) [Isomogroside V]	less objectionable taste attributes

same assay, conditions: in certain blends

Compound	perception of bitterness in blends
C[C@H](CC[C@@H](O[C@@H]1O[C@H](CO)[C@@H](O)[C@H](O)[C@H]1O[C@@H]1O[C@H](CO)[C@@H](O)[C@H](O)[C@H]1O)C(C)(C)O)[C@H]1CC[C@@]2(C)[C@@H]3CC=C4[C@@H](CC[C@H](O)C4(C)C)[C@]3(C)[C@H](O)C[C@]12C [Mogroside IIA]	increase the perception of bitterness
C[C@H](CC[C@@H](O[C@@H]1O[C@H](CO)[C@@H](O)[C@H](O)[C@H]1O)C(C)(C)O)[C@H]1CC[C@@]2(C)C3CC=C4[C@@H](CC[C@H](O)C4(C)C)[C@]3(C)[C@H](O)C[C@]12C (stereo partly drawn) [Mogroside IA]	increase the perception of bitterness
C[C@H](CC[C@@H](O[C@@H]1O[C@H](CO[C@@H]2O[C@H](CO)[C@@H](O)[C@H](O)[C@H]2O)[C@@H](O)[C@H](O)[C@H]1O)C(C)(C)O)[C@H]1CC[C@@]2(C)C3CC=C4[C@@H](CC[C@H](O[C@@H]5O[C@H](CO[C@@H]6O[C@H](CO)[C@@H](O)[C@H](O)[C@H]6O)[C@@H](O)[C@H](O)[C@H]5O)C4(C)C)[C@]3(C)[C@H](O)C[C@]12C (stereo partly drawn) [Mogroside IVA]	increase the perception of bitterness
C[C@H](CC[C@@H](O[C@@H]1O[C@H](CO[C@@H]2O[C@H](CO)[C@@H](O)[C@H](O)[C@H]2O)[C@@H](O)[C@H](O)[C@H]1O)C(C)(C)O)[C@H]1CC[C@@]2(C)C3CC=C4[C@@H](CC[C@H](O)C4(C)C)[C@]3(C)[C@H](O)C[C@]12C (stereo partly drawn) [Mogroside IIA1]	increase the perception of bitterness
C[C@H](CC[C@@H](O)C(C)(C)O)[C@H]1CC[C@@]2(C)[C@@H]3CC=C4[C@@H](CC[C@H](O[C@@H]5O[C@H](CO[C@@H]6O[C@H](CO)[C@@H](O)[C@H](O)[C@H]6O)[C@@H](O)[C@H](O)[C@H]5O)C4(C)C)[C@]3(C)C(=O)C[C@]12C [11-Oxomogroside IIA2]	increase the perception of bitterness
C[C@H](CC[C@@H](O[C@@H]1O[C@H](CO)[C@@H](O)[C@H](O)[C@H]1O[C@@H]1O[C@H](CO)[C@@H](O)[C@H](O)[C@H]1O)C(C)(C)O)[C@H]1CC[C@@]2(C)[C@@H]3CC=C4[C@@H](CC[C@H](O)C4(C)C)[C@]3(C)C(=O)C[C@]12C [11-Oxomogroside IIA]	increase the perception of bitterness
C[C@H](CC[C@@H](O[C@@H]1O[C@H](CO[C@@H]2O[C@H](CO)[C@@H](O)[C@H](O)[C@H]2O)[C@@H](O)[C@H](O)[C@H]1O)C(C)(C)O)[C@H]1CC[C@@]2(C)C3CC=C4[C@@H](CC[C@H](O[C@@H]5O[C@H](CO)[C@@H](O)[C@H](O)[C@H]5O)C4(C)C)[C@]3(C)C(=O)C[C@]12C (stereo partly drawn) [11-Oxomogroside III]	increase the perception of bitterness
C[C@H](CC[C@@H](O[C@@H]1O[C@H](CO)[C@@H](O)[C@H](O)[C@H]1O)C(C)(C)O)[C@H]1CC[C@@]2(C)C3CC=C4[C@@H](CC[C@H](O[C@@H]5O[C@H](CO)[C@@H](O)[C@H](O)[C@H]5O)C4(C)C)[C@]3(C)C(=O)C[C@]12C (stereo partly drawn) [11-Oxomogroside IIE]	increase the perception of bitterness
C[C@H](CC[C@@H](O)C(C)(C)O)[C@H]1CC[C@@]2(C)[C@@H]3CC=C4[C@@H](CC[C@H](O[C@@H]5O[C@H](CO[C@@H]6O[C@H](CO)[C@@H](O)[C@H](O)[C@H]6O)[C@@H](O)[C@H](O)[C@H]5O)C4(C)C)[C@]3(C)[C@H](O)C[C@]12C [Mogroside IIA2]	increase the perception of bitterness
C[C@H](CC[C@@H](O)C(C)(C)O)[C@H]1CC[C@@]2(C)C3CC=C4[C@@H](CC[C@H](O[C@@H]5O[C@H](CO)[C@@H](O)[C@H](O)[C@H]5O)C4(C)C)[C@]3(C)[C@H](O)C[C@]12C (stereo partly drawn) [Mogroside IE]	increase the perception of bitterness
C[C@H](CC[C@@H](O[C@@H]1O[C@H](CO[C@@H]2O[C@H](CO)[C@@H](O)[C@H](O)[C@H]2O)[C@@H](O)[C@H](O)[C@H]1O)C(C)(C)O)[C@H]1CC[C@@]2(C)C3CC=C4[C@@H](CC[C@H](O)C4(C)C)[C@]3(C)C(=O)C[C@]12C (stereo partly drawn) [11-Oxomogroside IIA1]	increase the perception of bitterness
C[C@H](CC[C@@H](O[C@@H]1O[C@H](CO)[C@@H](O)[C@H](O)[C@H]1O)C(C)(C)O)[C@H]1CC[C@@]2(C)C3CC=C4[C@@H](CC[C@H](O[C@@H]5O[C@H](CO[C@@H]6O[C@H](CO)[C@@H](O)[C@H](O)[C@H]6O)[C@@H](O)[C@H](O)[C@H]5O)C4(C)C)[C@]3(C)[C@H](O)C[C@]12C (stereo partly drawn) [Mogroside IIIA2]	increase the perception of bitterness

same assay, conditions: when present in certain amounts in blends with siamenoside I

Compound	impact on bitterness in blends with siamenoside I
C[C@H](CC[C@@H](O[C@@H]1O[C@H](CO)[C@@H](O)[C@H](O)[C@H]1O[C@@H]1O[C@H](CO)[C@@H](O)[C@H](O)[C@H]1O)C(C)(C)O)[C@H]1CC[C@@]2(C)C3CC=C4[C@@H](CC[C@H](O[C@@H]5O[C@H](CO)[C@@H](O)[C@H](O)[C@H]5O)C4(C)C)[C@]3(C)[C@H](O)C[C@]12C (stereo partly drawn) [Mogroside IIIE]	do not impact bitterness
C[C@H](CC[C@@H](O[C@@H]1O[C@H](CO[C@@H]2O[C@H](CO)[C@@H](O)[C@H](O)[C@H]2O)[C@@H](O)[C@H](O)[C@H]1O[C@@H]1O[C@H](CO)[C@@H](O)[C@H](O)[C@H]1O)C(C)(C)O)[C@H]1CC[C@@]2(C)[C@@H]3CC=C4[C@@H](CC[C@H](O[C@@H]5O[C@H](CO[C@@H]6O[C@H](CO)[C@@H](O)[C@H](O)[C@H]6O)[C@@H](O)[C@H](O)[C@H]5O)C4(C)C)[C@]3(C)[C@H](O)C[C@]12C [Mogroside V]	do not impact bitterness
11-oxomogroside I	do not impact bitterness
